Laboratory results: patent publication US20260159512A1, “BCAT2 INHIBITORS” (AGIOS PHARMACEUTICALS, INC., priority 2021, published 2026)
pIC50: −log10 of the molar value.

Tests used:
Conditions in all cases: average where tested multiple times
BCAT2 [1] = target: T1, BCAT2 (Homo sapiens, UniProt O15382); assay: BCAT2 in vitro cell inhibition using engineered A549 cells (KMV cell assay, 13C6-KMV by LC-MS/MS); format: cell-based; parameters: The result was an engineered A549 cell line that expressed endogenous BCAT2; endogenous in cells; host or cells: A549 cells with MUT and BCAT1 knocked out by CRISPR/CAS9; key to BCAT2 Cell Inhibition: A: less than or equal to 0.100 μM; B: greater than 0.100 and less than or equal to 0.500 μM; C: greater than 0.500 and less than or equal to 1.000 μM; d: greater than 1.000 μM; E: no fit
T1 sequence (O15382 28-392): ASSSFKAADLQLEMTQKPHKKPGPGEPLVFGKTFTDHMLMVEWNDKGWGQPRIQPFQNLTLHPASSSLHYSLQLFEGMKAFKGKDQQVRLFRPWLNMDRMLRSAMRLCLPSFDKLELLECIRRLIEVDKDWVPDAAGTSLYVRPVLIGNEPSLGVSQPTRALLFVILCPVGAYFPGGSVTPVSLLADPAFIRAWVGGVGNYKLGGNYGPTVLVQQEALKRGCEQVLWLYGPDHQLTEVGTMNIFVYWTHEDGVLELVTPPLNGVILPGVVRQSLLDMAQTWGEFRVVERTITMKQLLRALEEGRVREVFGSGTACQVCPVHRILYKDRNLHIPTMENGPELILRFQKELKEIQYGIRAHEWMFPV

hBCAT1 = target: T2, hBCAT1 (Homo sapiens, UniProt P54687); assay: BCAT1 in vitro enzyme inhibition assay (resazurin/diaphorase-coupled fluorescence); format: biochemical
T2 sequence (P54687 1-386): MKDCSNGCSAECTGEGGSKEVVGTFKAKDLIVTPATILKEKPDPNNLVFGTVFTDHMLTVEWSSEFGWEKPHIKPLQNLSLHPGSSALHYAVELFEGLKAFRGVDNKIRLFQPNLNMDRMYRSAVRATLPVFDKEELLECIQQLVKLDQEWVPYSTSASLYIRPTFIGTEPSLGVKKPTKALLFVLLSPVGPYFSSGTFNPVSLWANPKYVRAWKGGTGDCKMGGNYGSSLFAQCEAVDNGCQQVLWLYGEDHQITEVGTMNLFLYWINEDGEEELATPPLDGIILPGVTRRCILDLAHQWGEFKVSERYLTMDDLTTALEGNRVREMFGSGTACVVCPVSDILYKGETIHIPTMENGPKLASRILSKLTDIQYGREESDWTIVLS
How it was run: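 Ten-point, 3-fold compound series (top final 100 μM, delivered 1:50 from 50× DMSO stocks) tested against hBCAT1. Inhibition detected via diaphorase-coupled resazurin fluorescence, duplicate wells, with values from repeated runs averaged.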

BCAT2 [2] = target: T1, BCAT2; assay: BCAT2 in vitro enzyme inhibition assay (resazurin/diaphorase-coupled fluorescence); format: biochemical
How it was run: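 Coupled fluorescence readout: glutamate formed from L-leucine/α-ketoglutarate transamination drives GDH/NAD/diaphorase reduction of resazurin (Ex 540/Em 590). Human BCAT2 was first exposed 1 h at room temperature to compound, top final 100 μM in 3-fold, 10-point series; substrate reaction ran 1 h before SDS quench, in technical duplicate with DMSO max and enzyme-free min controls.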

SMILES	pIC50 (BCAT2 [1])	pIC50 (hBCAT1)	pIC50 (BCAT2 [2])	BCAT2 Cell Inhibition (BCAT2 [1])
O=C(NC1COCC(n2c(-c3ncccc3F)nc3cnc(-n4nccn4)cc32)C1)c1ncc(C(F)F)s1 (single isomer, unassigned) [Example 139, 5-(difluoromethyl)-N-(5-(2-(3-fluoropyridin-2-yl)-6-(2H-1,2,3-triazol-2-yl)-1H-imidazo[4,5-c]pyridin-1-yl)tetrahydro-2H-pyran-3-yl)thiazole-2-carboxamide]		< 5.30	< 6.00	E
O=C(N[C@H]1CCC[C@@H](n2c(-c3ncccc3F)nc3cnc(-n4nccn4)cc32)C1)c1ccc(Cl)s1 [Example 76, 5-chloro-N-((1S,3R)-3-(2-(3-fluoropyridin-2-yl)-6-(2H-1,2,3-triazol-2-yl)-1H-imidazo[4,5-c]pyridin-1-yl)cyclohexyl)thiophene-2-carboxamide]	≥ 7.00	> 6.30	≥ 7.00	

More lines, now with the values ahead:

pIC50 (BCAT2 [1])	pIC50 (hBCAT1)	pIC50 (BCAT2 [2])	BCAT2 Cell Inhibition (BCAT2 [1])	SMILES
≥ 7.00	> 6.30	≥ 7.00		O=C(N[C@H]1CCC[C@@H](n2c(-c3ccccc3F)nc3cnc(-c4cnn[nH]4)cc32)C1)c1ncc(Cl)s1 [Example 189, 5-chloro-N-((1S,3R)-3-(2-(2-fluorophenyl)-6-(1H-1,2,3-triazol-5-yl)-1H-imidazo[4,5-c]pyridin-1-yl)cyclohexyl)thiazole-2-carboxamide]
6.00 to 6.30	5.30 to 6.00	≥ 7.00		C=Cc1csc(C(=O)N[C@H]2CCC[C@@H](n3c(-c4ccccc4F)nc4cnc(-c5nc[nH]n5)cc43)C2)n1 [Example 173, N-((1S,3R)-3-(2-(2-fluorophenyl)-6-(1H-1,2,4-triazol-3-yl)-1H-imidazo[4,5-c]pyridin-1-yl)cyclohexyl)-4-vinylthiazole-2-carboxamide]
6.00 to 6.30	6.00 to 6.30	≥ 7.00		CC(C)Cc1nc2cnc(-c3ccn(C(F)F)n3)cc2n1[C@@H]1CC(O)C[C@H](NC(=O)c2ncc(Cl)s2)C1 (stereo in doubt) [Example 213, 5-chloro-N-((1R,3S,5R)-3-(6-(1-(difluoromethyl)-1H-pyrazol-3-yl)-2-isobutyl-1H-imidazo[4,5-c]pyridin-1-yl)-5-hydroxycyclohexyl)thiazole-2-carboxamide]
6.30 to 7.00	> 6.30	≥ 7.00		O=C(N[C@H]1CCC[C@@H](n2c(-c3ccccc3F)nc3cnc(-c4n[nH]c(=O)o4)cc32)C1)c1ncc(Cl)s1 [Example 203, 5-chloro-N-((1S,3R)-3-(2-(2-fluorophenyl)-6-(5-oxo-4,5-dihydro-1,3,4-oxadiazol-2-yl)-1H-imidazo[4,5-c]pyridin-1-yl)cyclohexyl)thiazole-2-carboxamide]
